Source: US20220062218A1, “COMPOSITIONS AND METHODS FOR TREATING DIABETES” (ENZYCHEM LIFESCIENCES, priority 2019, published 2022)

Legend:
Assay type in all cases: cell-based, rat
INS-1 cells = assay: Intracellular ROS generation in STZ-treated cells, flow cytometry with DCFH-DA and immunofluorescence
Method: For intracellular ROS analyses after administering PLAG, cells were incubated with 2 μM of DCFH-DA (2′,7′-dichlorodihydrofluorescein diacetate, Invitrogen, Carlsbad, CA, USA) for 30 min at 37 ° C. The analysis was performed using a BD FACS Verse flow cytometer (BD Biosciences) (FIGS. 4A and 4B), and expression of reactive oxygen species (ROS) was observed by immunofluorescence assay (FIG. 4C). We further examined cell apoptosis in cells co-treated with three types of ROS inhibitor (Apocynin, MitoTEMPO, NAC) to examine the association of intracellular ROS generation with pancreatic beta cell apoptosis. […] Apocynin (NADPH oxidase inhibitor), MitoTEMPO (mitochondrial ROS inhibitor), and N-acetyl-L-cysteine (NAC, an overall ROS inhibitor) were used as the ROS inhibitor. Data are presented as mean ±SD(* P<0.05, ** P<0.005, *** P <0.001 vs control, #P<0.05, ## P<0.005 vs STZ).
(§1) After treatment with PLAG and PLH(1-palmitoyl-2-linoleoyl-3-hydroxyl-rac-glycerol), apoptosis, intracellular ROS generation and glucose uptake were analyzed by flow cytometry (FIG. 7-B to 7-E). In addition, expression of GLUT2 in membrane fractions was analyzed by Western blotting (FIG.7-F). Data are presented as mean ±SD. ***P<0.001 vs. control, #P<0.05, ##P<0.005 vs. STZ. N.S.: No significance.
Cells were collected by trypsinization and washed with ice-cold PBS. For cell apoptosis analyses, INS-1 cells were incubated with annexin V (BD Biosciences, Franklin Lakes, N.J., USA) for 10 min at room temperature, and stained with 7-AAD (BD Biosciences). For intracellular reactive oxygen species (ROS) analyses, cells were incubated with 2 μM of DCFH-DA (2′,7′-dichlorodihydrofluorescein diacetate, Invitrogen, Carlsbad, Calif., USA) for 30 min at 37° C. The analysis was performed using a BD FACS Verse flow cytometer (BD Biosciences).

RAC1 = RAC1 expression in membrane fractions of STZ-treated cells by western blotting; conditions: time course
Method: In addition, to perform a special protein detection test (Western Blotting), cells were lysed by RIPA buffer (LPS Solution, Daejeon, Korea) supplemented with protease and phosphatase inhibitors (Thermo Scientific, Waltham, Mass., USA). Proteins were separated on 12% sodium dodecyl sulfate-polyacrylamide gels and transferred to polyvinylidene difluoride membranes (EMD Millipore, Darmstadt, Germany). The membranes were blocked with 5% BSA for 1 h and incubated with primary antibodies to GLUT2 (bs-0351r, Bioss, Woburn, Mass., USA), RAC1 (03589, EMD Millipore), BAX (B51030, Bioworld Tech, St. Louis Park, Minn., USA), BCL-2 (B51031, Bioworld), Cytochrome c (#4272, Cell Signaling Technology, Danvers, Mass., USA), Caspase-3 (#9662, Cell Signaling Technology), and Na+-K+ ATPase (#3010S, Cell Signaling Technology). After three washes in PBST, membranes were incubated with HRP-conjugated secondary antibodies (Enzo Life Sciences, dilution 1:5,000) for 1 h at room temperature. Protein bands were detected using ECL reagent (Thermo Scientific) and then visualized on films. Expression of apoptosis-related proteins like Bcl-2, Bax, cytochrome c, caspase-3 was analyzed by western blotting, Bax/Bcl-2 ratio is represented by a bar graph (FIG. 2-C). Data are presented as mean ±SD (***P<0.001 vs. control, #P<0.05, ##P<0.005 vs. STZ). […]

[1] = test system: clathrin- or caveolin-silenced INS-1 cells; assay: Cell apoptosis and ROS generation in clathrin or caveolin siRNA-transfected cells treated with STZ
Method: GLUT2-silenced cells were prepared to clarify the role of GLUT2 in STZ-treated cells. INS-1 cells were transfected with GLUT2 siRNA to determine whether GLUT2 expression is related to STZ-induced cell apoptosis and ROS generation.
Apoptosis of pancreatic beta cells, intracellular ROS generation and glucose intake was analyzed by flow cytometry using GLUT2 siRNA transfected cells (FIGS. 6-A to 6-C). The effect of PLAG on (D) cell apoptosis and (E) ROS generation in Endocytosis-related protein, clathrin or caveolin siRNA-transfected cells was analyzed (FIG. 6D and 6-E). Data are presented as mean ±SD. **P<0.005, ***P<0.001 vs. control, ##P<0.005, #IIIIP<0.001 vs. STZ group. N.S.: No significance. Transfection with siRNAs was performed using the HiPerFect reagent (Qiagen, Hilden, Germany), according to the manufacturer's protocol. Specific siRNAs directed against GLUT2, clathrin, and caveolin were obtained from Santa Cruz Biotechnology (Dallas, Tex., USA).

[2] = test system: apoptosis-related proteins BCL-2, BAX, cytochrome c, caspase-3; assay: Expression of apoptosis-related proteins (BCL-2, BAX, cytochrome c, caspase-3) by western blotting in STZ-treated cells
Method: In addition, to perform a special protein detection test (Western Blotting), cells were lysed by RIPA buffer (LPS Solution, Daejeon, Korea) supplemented with protease and phosphatase inhibitors (Thermo Scientific, Waltham, Mass., USA). Proteins were separated on 12% sodium dodecyl sulfate-polyacrylamide gels and transferred to polyvinylidene difluoride membranes (EMD Millipore, Darmstadt, Germany). The membranes were blocked with 5% BSA for 1 h and incubated with primary antibodies to GLUT2 (bs-0351r, Bioss, Woburn, Mass., USA), RAC1 (03589, EMD Millipore), BAX (B51030, Bioworld Tech, St. Louis Park, Minn., USA), BCL-2 (B51031, Bioworld), Cytochrome c (#4272, Cell Signaling Technology, Danvers, Mass., USA), Caspase-3 (#9662, Cell Signaling Technology), and Na+-K+ ATPase (#3010S, Cell Signaling Technology). After three washes in PBST, membranes were incubated with HRP-conjugated secondary antibodies (Enzo Life Sciences, dilution 1:5,000) for 1 h at room temperature. Protein bands were detected using ECL reagent (Thermo Scientific) and then visualized on films. Expression of apoptosis-related proteins like Bcl-2, Bax, cytochrome c, caspase-3 was analyzed by western blotting, Bax/Bcl-2 ratio is represented by a bar graph (FIG. 2-C). Data are presented as mean ±SD (***P<0.001 vs. control, #P<0.05, ##P<0.005 vs. STZ).

[3] = test system: Glucose Transporter 2 (GLUT2); assay: GLUT2 plasma membrane expression in STZ-treated cells (western blotting of membrane fractions, immunofluorescence)
Method: To investigate the effect of PLAG on GLUT2 plasma membrane localization, GLUT2 expression and Racl expression in membrane fractions were examined in the same manner as the Western protein blotting (FIGS. 3A to 3B).
In addition, the localization of GLUT2 was observed by immunofluorescence assay. Cells were grown on glass coverslips in 24-well plates and treated with STZ and PLAG. After washing with ice-cold PBS, the cells were fixed with 4% formaldehyde. Permeabilization was not performed to identify only proteins expressed in the cell membrane. The cells were incubated with anti-GLUT2 antibodies (dilution 1:500) and then stained with an Alexa Fluor 488-conjugated secondary antibody (Enzo Life Sciences, dilution 1:1000) and DAPI (Invitrogen). Stained cells were observed under a Zeiss LSM800 confocal microscope (Carl Zeiss, Jena, Germany) (FIG. 3-C).
as §1

Compound: CCCCC/C=C\C/C=C\CCCCCCCC(=O)OC(COC(C)=O)COC(=O)CCCCCCCCCCCCCCC (racemic) [PLAG, 1-palmitoyl-2-linoleoyl-3-acetyl-rac-glycerol]
- decrease of ROS generation, PLAG vs PLH (INS-1 cells; Example 8): more effective than PLH
- intracellular ROS (dose dependence) (INS-1 cells; flow cytometry): dose-dependently decreased
- intracellular ROS (time course) (INS-1 cells; flow cytometry and immunofluorescence): attenuated
- expression of RAC1 in membrane fractions (RAC1): attenuated after a slight increase in 15 min
- apoptosis or ROS generation in clathrin- or caveolin-silenced cells [1]: did not influence apoptosis or ROS generation
- expression of anti-apoptotic protein BCL-2 ([2]; decreased by STZ): recovered by PLAG
- expression of apoptosis-related proteins BAX, cytochrome c, and caspase-3 ([2]; increased by STZ): attenuated by PLAG addition
- GLUT2 endocytosis / internalization, PLAG vs PLH ([3]; Example 8, membrane fractions by western blotting): endocytosis of GLUT2 was promoted
- GLUT2 internalization (immunofluorescence) ([3]; STZ-treated cells, non-permeabilized, up to 60 min): accelerated GLUT2 internalization was observed
- membrane-expressed GLUT2 (time course) ([3]; STZ-treated cells, western blotting of membrane fractions, up to 60 min): gradually decreased until 10 min, then recovered and returned to control levels at 60 min
